Test results: patent US20260263651A1, “WOUND DRESSING” (UNIVERSITY OF SUNDERLAND, priority 2023, published 2026)

Columns and labels:
Escherichia coli = assay: Microbiological evaluation of standardised bacterial suspensions, modified wound dressing with absorbed substrate on agar; format: cell-based; set-up: key to Observable colour change: − indicates no colour change; +− indicates relatively discernible blue colour change; + indicates a moderately strong blue colour change; ++ indicates a strong blue colour change
Protocol: (§1) ACTIVHEAL® simply A (10×20 cm) non-adhesive foam samples were provided by Advanced Medical Solutions Ltd. The wound dressings were cut into ~5-10×5-10 mm squares, using an ethanol washed pair of scissors. A maximum of 0.20 g of the material was added into 10 mL DI water, and the pH was adjusted to ~3 by the addition of 0.1 M aq. HCl solution. The solution was stirred for 10 mins at room temperature, followed by the addition of 0.33 g EDC •HCl (1.7 mmol) and the pH was maintained at ~3 by the addition of 0.1 M aq. HCl solution. The solution was stirred at room temperature for 10 mins followed by the addition of 0.88 g compound 8 which was dissolved in DMSO or DMF. The mixture was stirred at room temperature for 48 h. The wound dressings were filtered and were washed with ethanol. To ensure the full removal of any non-coupled amide (8), the foam samples were resuspended in ethanol, stirred for 10 mins and filtered, and this process was repeated until the amide (8) was not detectable from the filtrate (this could be maintained by TLC or HPLC evaluation). The samples were dried in a vacuum oven for 3-4 h.
(§2) The aqueous solution of 3a or 3b was prepared by the following: the desired amount of the enzymatic substrate (3.0 mg for 300 mg/L, 6.0 mg for 600 mg/L, 9.0 mg for 900 mg/L, 15.0 mg for 1500 mg/L, and 30.0 mg for 3000 mg/L) was weighed out on a 4 decimal place balance within ±0.3 mg error limit into a 10 mL volumetric flask and was adjusted to 10.0 mL with DI water. The solutions were absorbed into the foam samples and dried in a vacuum oven at 40° C. overnight.
(§3) Bacterial strains were routinely cultured from working stocks in Tryptic Soy Broth (TSB) and incubated at 37° C. overnight with shaking at 150 RPM. Overnight cultures were centrifuged at 3000×g for 5 minutes, the supernatant discarded, and the pellet resuspended in 10 mL phosphate buffered saline (PBS). Bacterial inoculums were standardised by optical density at 600 nm on an Amersham Biosciences Ultrospec 10 spectrophotometer (Amersham Biosciences, Amersham, UK) to contain between 1 and 3×10^8 CFU/mL.
However, rapid evaluation of lower bacteria concentrations is essential for the desired clinical application. Three different solutions (300, 600 and 1500 mg/L) were prepared from the substrates 3a and 3b in micro filtered DI water as a solvent. The solutions were absorbed into the wound dressing samples, which were dried overnight under vacuum at 40° C.
(§4) Two Gram negative strains (Escherichia coli—EC and Pseudomonas aeruginosa—PSA) and a Gram-positive bacterium (Staphylococcus aureus—SA) were evaluated. The bacteria were incubated overnight, centrifuged at 3000×g for 5 mins, the supernatant was discarded, and the residue pellets were resuspended in 10 mL PBS. The inoculums were standardised by measuring the optical density at 600 nm to assure a 1-3×10^8 CFU/mL. The standardised solutions were further diluted to prepare 1-3×10^6 and 1-3×10^4 CFU/mL suspension. 1×10^6 CFU would be an ideal breakpoint for a positive result, as this concentration coincides well with a level of colonisation that would likely go on to produce an infection.
(§5) 100 μL bacterial suspensions were smeared over agar plates. Wound dressing samples were added to the top of the agar and were rolled over a few times (to ensure a full coverage and to ease the visibility of the colour change). The plates were incubated at 37° C., and the results were recorded after 24 h, after 48 h, after 72 h. The results are shown in Table 3-5; − indicates no colour change, +− indicates relatively discernible blue colour change, + indicates a moderately strong blue colour change and ++ indicates a strong blue colour change.

Staphylococcus aureus = assay: as above; format: cell-based; set-up: key to Observable colour change: − indicates no colour change; +− indicates relatively discernible blue colour change; + indicates a moderately strong blue colour change; ++ indicates a strong blue colour change; details: for colour change: SA
Protocol: as §1, §2, §3
However, rapid evaluation of lower bacteria concentrations is essential for the desired clinical application. […] The solutions were absorbed into the wound dressing samples, which were dried overnight under vacuum at 40° C.
as §4, §5

SMILES: CCN(CC)c1ccc(NC(=O)[C@@H](N)CC(C)C)cc1.Cl [3b, (2S)-2-amino-N-[4-(diethylamino)phenyl]-4-methyl-pentanamide hydrochloride]
- Observable colour change (Escherichia coli; EC 10^4, substrate 300 mg/L, 24 h at 37° C.): −
- Observable colour change (Escherichia coli; EC 10^4, substrate 300 mg/L, 48 h at 37° C.): +
- Observable colour change (Escherichia coli; EC 10^4, substrate 300 mg/L, 72 h at 37° C.): +
- Observable colour change (Escherichia coli; EC 10^4, substrate 900 mg/L, 24 h at 37° C.): −
- Observable colour change (Escherichia coli; EC 10^4, substrate 900 mg/L, 48 h at 37° C.): +
- Observable colour change (Escherichia coli; EC 10^4, substrate 900 mg/L, 72 h at 37° C.): ++
- Observable colour change (Escherichia coli; EC 10^4, substrate 1500 mg/L, 24 h at 37° C.): −
- Observable colour change (Escherichia coli; EC 10^4, substrate 1500 mg/L, 48 h at 37° C.): +
- Observable colour change (Escherichia coli; EC 10^4, substrate 1500 mg/L, 72 h at 37° C.): ++
- Observable colour change (Escherichia coli; EC 10^6, substrate 300 mg/L, 24 h at 37° C.): −
- Observable colour change (Escherichia coli; EC 10^6, substrate 300 mg/L, 48 h at 37° C.): +
- Observable colour change (Escherichia coli; EC 10^6, substrate 300 mg/L, 72 h at 37° C.): +
- Observable colour change (Escherichia coli; EC 10^6, substrate 900 mg/L, 24 h at 37° C.): −
- Observable colour change (Escherichia coli; EC 10^6, substrate 900 mg/L, 48 h at 37° C.): +
- Observable colour change (Escherichia coli; EC 10^6, substrate 900 mg/L, 72 h at 37° C.): ++
- Observable colour change (Escherichia coli; EC 10^6, substrate 1500 mg/L, 24 h at 37° C.): +−
- Observable colour change (Escherichia coli; EC 10^6, substrate 1500 mg/L, 48 h at 37° C.): +
- Observable colour change (Escherichia coli; EC 10^6, substrate 1500 mg/L, 72 h at 37° C.): ++
- colour change (Escherichia coli; EC 10^6 CFU and 10^4 CFU, after 48 h incubation): moderate colour change
- colour change (Escherichia coli; EC 10^8, 10^6 or 10^4 CFU, after 72 h, every tested substrate concentration): moderate or strong blue colour changes
- Observable colour change (Escherichia coli; EC 10^8, substrate 300 mg/L, 24 h at 37° C.): +−
- Observable colour change (Escherichia coli; EC 10^8, substrate 300 mg/L, 48 h at 37° C.): +
- Observable colour change (Escherichia coli; EC 10^8, substrate 300 mg/L, 72 h at 37° C.): +
- Observable colour change (Escherichia coli; EC 10^8, substrate 900 mg/L, 24 h at 37° C.): +−
- Observable colour change (Escherichia coli; EC 10^8, substrate 900 mg/L, 48 h at 37° C.): ++
- Observable colour change (Escherichia coli; EC 10^8, substrate 900 mg/L, 72 h at 37° C.): ++
- Observable colour change (Escherichia coli; EC 10^8, substrate 1500 mg/L, 24 h at 37° C.): +−
- Observable colour change (Escherichia coli; EC 10^8, substrate 1500 mg/L, 48 h at 37° C.): ++
- Observable colour change (Escherichia coli; EC 10^8, substrate 1500 mg/L, 72 h at 37° C.): ++
- colour change (Escherichia coli; EC 10^8 CFU, 10^6 CFU, and 104 CFU, substrate 900 mg/L, printed in the 48 h paragraph): strong blue colour changes
- colour change (Escherichia coli; EC 10^8 CFU, after 48 h incubation, substrate 900 or 1500 mg/L): strong blue colour changes
- Observable colour change (Staphylococcus aureus; SA 10^4, substrate 300 mg/L, 24 h at 37° C.): −
- Observable colour change (Staphylococcus aureus; SA 10^4, substrate 300 mg/L, 48 h at 37° C.): −
- Observable colour change (Staphylococcus aureus; SA 10^4, substrate 300 mg/L, 72 h at 37° C.): −
- Observable colour change (Staphylococcus aureus; SA 10^4, substrate 900 mg/L, 24 h at 37° C.): −
- Observable colour change (Staphylococcus aureus; SA 10^4, substrate 900 mg/L, 48 h at 37° C.): −
- Observable colour change (Staphylococcus aureus; SA 10^4, substrate 900 mg/L, 72 h at 37° C.): −
- Observable colour change (Staphylococcus aureus; SA 10^4, substrate 1500 mg/L, 24 h at 37° C.): −
- Observable colour change (Staphylococcus aureus; SA 10^4, substrate 1500 mg/L, 48 h at 37° C.): −
- Observable colour change (Staphylococcus aureus; SA 10^4, substrate 1500 mg/L, 72 h at 37° C.): −
- Observable colour change (Staphylococcus aureus; SA 10^6, substrate 300 mg/L, 24 h at 37° C.): −
- Observable colour change (Staphylococcus aureus; SA 10^6, substrate 300 mg/L, 48 h at 37° C.): −
- Observable colour change (Staphylococcus aureus; SA 10^6, substrate 300 mg/L, 72 h at 37° C.): −
- Observable colour change (Staphylococcus aureus; SA 10^6, substrate 900 mg/L, 24 h at 37° C.): −
- Observable colour change (Staphylococcus aureus; SA 10^6, substrate 900 mg/L, 48 h at 37° C.): −
- Observable colour change (Staphylococcus aureus; SA 10^6, substrate 900 mg/L, 72 h at 37° C.): −
- Observable colour change (Staphylococcus aureus; SA 10^6, substrate 1500 mg/L, 24 h at 37° C.): −
- Observable colour change (Staphylococcus aureus; SA 10^6, substrate 1500 mg/L, 48 h at 37° C.): −
- Observable colour change (Staphylococcus aureus; SA 10^6, substrate 1500 mg/L, 72 h at 37° C.): +−
- Observable colour change (Staphylococcus aureus; SA 10^8, substrate 300 mg/L, 24 h at 37° C.): −
- Observable colour change (Staphylococcus aureus; SA 10^8, substrate 300 mg/L, 48 h at 37° C.): −
- Observable colour change (Staphylococcus aureus; SA 10^8, substrate 300 mg/L, 72 h at 37° C.): −
- Observable colour change (Staphylococcus aureus; SA 10^8, substrate 900 mg/L, 24 h at 37° C.): −
- Observable colour change (Staphylococcus aureus; SA 10^8, substrate 900 mg/L, 48 h at 37° C.): −
- Observable colour change (Staphylococcus aureus; SA 10^8, substrate 900 mg/L, 72 h at 37° C.): −
- Observable colour change (Staphylococcus aureus; SA 10^8, substrate 1500 mg/L, 24 h at 37° C.): −
- Observable colour change (Staphylococcus aureus; SA 10^8, substrate 1500 mg/L, 48 h at 37° C.): +−
- Observable colour change (Staphylococcus aureus; SA 10^8, substrate 1500 mg/L, 72 h at 37° C.): +−
- colour change (Staphylococcus aureus; 48 h paragraph, substrate 1500 mg/L): weak, but discernible colour change
- colour change (Staphylococcus aureus; after 72 h, substrate 1500 mg/L): weak, hardly visible colour change
